In patent US20020025298A1, “Use of texaphyrin in ocular diagnosis and therapy” (Pharmacyclics, Inc., priority 1996, published 2002):
“And” between values parts separate entries of the source, which are not always exact repeats. Equal values may be shown once. Read-outs that look alike come from different tables or passages of the source. Blank lines part the entries; values can stand above or below the compound they belong to.

Columns and labels:
[1] = tested on: rabbit plasma proteins and lipoproteins; assay: In vivo binding to plasma proteins and lipoproteins, KBr density-gradient ultracentrifugation; details: for binding to plasma elements (in words): rabbit, in vivo
Procedure: (§1) Plasma Analysis. Rabbits were injected via the ear vein with 1 μmol Lu(III)T2BET/kg and blood was collected at 15 min, 30 min, 3 hr, and 5 hr post administration. EDTA was used as the anticoagulant. Plasma samples (25 μl) were mixed with 10 mM Triton X100 (3 ml) and analyzed by fluorescence. Fluorescence spectra were acquired with a SLM 48000S instrument, excitation was between 450-480 nm and emission monitored from 700-800 nm. In vivo binding of Lu(III)T2BET to rabbit plasma proteins and lipoproteins was assessed using KBr density-gradient ultracentrifugation to fractionate the protein/lipoprotein mixture, followed by fluorescence spectroscopy to determine the relative distribution of Lu(III)T2BET among the low-density lipoproteins (LDL), high-density lipoproteins (HDL), and heavy proteins.

[2] = cited from earlier work
[3] = cited from earlier work; remark: listed apart in the source
normal NZW rabbits = assay: Fluorescence angiography in normal NZW rabbits with fundoscopy and H&E histology (safety); type: in vivo, rabbit; details: i.v. 1-10 μmol/kg, fluorescein and ICG angiography and H&E histology
Procedure: Fluorescence angiography comparing LuT2BET, fluorescein, and ICG was performed on normal NZW rabbits. Normal rabbits (n=4) received an intravenous injection of LuT2BET from 1-10 μmol/kg after intramuscular sedation and pupillary dilatation. Extensive fundoscopy was performed immediately and up to 2 hours post texaphyrin, fluorescein, or ICG administration. […] In further studies, vascular lesions including neovascularization was induced in albino rabbits (NZW) using photocoagulation. PDT using LuT2BET was carried out on the induced lesions. […] Therefore, selective accumulation of Lu(III)T2BET in areas of neovascularization should facilitate diagnosis and photodynamic therapy of age-related macular degeneration and other disorders related to abnormal vasculature.
Dyes. Lutetium texaphyrin, Lu(III)T2BET, was dissolved in 5% mannitol at a concentration of 2 mM. Indocyanine-green (ICG, Cardio-Gree^n®, Becton Dickinson and Company, Cockeysville, Md.) and fluorescein (Alcon Laboratories, Fort Worth, Tex.) fluorescent angiograms were performed at concentrations of 0.31 mg/kg and 7.5 mg/kg, respectively. […]
Photography. Fundus photography and fluorescence angiograms were performed with the TOPCON™50VT camera coupled to the Ophthalmic Imaging System (Ophthalmic Imaging System Inc., Sacramento, Calif.). […] ICG was excited at 790-805 nm and fluorescence detected at 835 nm. […]

[4] = tested on: induced vascular lesions of the eye; assay: Photodynamic therapy of induced vascular lesions of the eye; type: in vivo; details: rabbit
Procedure: Induction of Neovascularization. Photocoagulation bums were introduced in the right macular retina of seven rabbits with an argon dye laser (Coherent Inc., Palo Alto, Calif.). On average, five lesions were induced with 577 nm light using a spot size of 50 μm using enough power (typically 450 mW) to cause bleeding into the retina. The eyes were photographed immediately after photocoagulation. Fluorescein and ICG angiograms were performed 11-15 days after photocoagulation. […] Four control animals, having no induced lesions, were given fluorescence angiograms with the respective dyes.
PDT Protocol. Animals received Lu(III)T2BET, 30 minutes post injection laser light at 488 nm, spot size of 1000 μm, was directed to each lesion via a slitlamp system. Fluorescein angiography was performed throughout the procedure, from prior to until after PDT.
Thirty minutes after injection with LuT2BET, laser light at 488 nm, spot size of 1000 μm, was directed to the lesion via a slitlamp lens system.

[5] = Absorption spectrum and fluorescence profile; type: physicochemical
[6] = Plasma analysis: plasma concentration by fluorescence; type: in vivo; details: rabbit, i.v. 1 μmol/kg
Procedure: as §1

Compound: CC1(C)C(/C=C/C=C/C=C/C=C2\N(CCCCS(=O)(=O)O)c3ccc4ccccc4c3C2(C)C)=[N+](CCCCS(=O)(=O)[O-])c2ccc3ccccc3c21 [ICG, indocyanine green, reference compound]
binding to plasma elements (in words) [1]: binding mainly to albumin

Compound: Benzoporphyrin derivative [BPD]
solubility in aqueous solutions [2]: insoluble
duration of cutaneous photosensitivity ([3]; in vivo): a few days

Compound: CCOC(=O)C1=Cc2c3nc(cc4nc(cc5[n-]c(cc6[n-]c2c(C)c6CC)c(C)c5CC)C(C)=C4CC)[C@@H](C)[C@]13CC.[Cl-].[Cl-].[Sn] (racemic) [SnET2, Tin etiopurpurin]
solubility in aqueous solutions [2]: insoluble

Compound: porfimer sodium
duration of cutaneous photosensitivity ([3]; light of 630 nm): up to 6 weeks

Continued, in another order:

binding to plasma elements (in words) [1]: not bound to plasma elements
Compound: O=C1OC2(c3ccc(O)cc3Oc3cc(O)ccc32)c2ccccc21 [fluorescein, reference compound]

relative in vivo binding, HDL fraction ([1]; rabbit plasma): 49%
relative in vivo binding, LDL portion ([1]; rabbit plasma): 10.5%
relative in vivo binding, heavy proteins ([1]; rabbit plasma): 40.5%
absorption bands [5]: 470 nm and 732 nm
fluorescence emission profile centre [5]: 750 nm
extinction coefficient ε ([5]; at 732 nm): 32,000 M^−1 cm^−1
fluorescence emission FWHM ([5]; emission centered at 750 nm): 60 nm
concentration in plasma ([6]; 15 min): 2680 ng/mL
concentration in plasma ([6]; 30 min): 1790 ng/mL
concentration in plasma ([6]; 3 hr): 180 ng/mL
concentration in plasma ([6]; 5 h): 120 ng/mL
Compound: CC(=O)[O-].CC(=O)[O-].CCc1c(CC)c2cc3nc(cnc4cc(OCCOCCOCCOC)c(OCCOCCOCCOC)cc4ncc4nc(cc1[n-]2)C(CCCO)=C4C)C(C)=C3CCCO.O.[Lu+3] [LuT2BET]
normal tissue damage after fluorescence angiography (normal NZW rabbits): no evidence of normal tissue damage
damage in control normal choroid or retinal tissue after PDT [4]: no damage was observed
damage to surrounding vessels or tissues after PDT [4]: No damage
closure of induced lesions after PDT ([4]; 488 nm light 30 min after injection, spot size 1000 μm): Closure of induced lesions was observed
fluorescein leakage outside the treated vessel after PDT ([4]; fluorescein angiogram after PDT): limited fluorescence leakage outside of the PDT-treated vessel
binding to plasma elements (in words) [1]: predominantly bound to lipoproteins and to some extent albumin
